Test results from publication PMC10571957, “αV-Integrin-Dependent Inhibition of Glioblastoma Cell Migration, Invasion and Vasculogenic Mimicry by the uPAcyclin Decapeptide” (Cancers, 2023).
Where “and” joins values, the source holds several entries; their conditions need not be identical. Equal values may be shown once.

What was measured:
U138-MG cells = test: Boyden chamber Matrigel invasion, U138-MG; assay type: cell-based, human; conditions: for invasion, % of basal, average 2 expts: mean of 2 expts; for invasion, % of basal, average expt 1: mean of expt 1; for invasion, % of basal, average expt 2: mean of expt 2; for invasion, % of basal, T-test list: single replicates of both expts
Protocol: The migration and invasion assays were performed using Boyden chambers and 8 µm pore size PVP-free filters coated with 50 µg/mL of collagen type VI (Sigma), as previously described. For the invasion assays, collagen-coated filters were further coated with 50 µg/mL Matrigel^TM (Sigma). Briefly, 11 × 10^4 U87-MG, 4 × 10^4 U251-MG, or 4 × 10^4 U138-MG/sample were pre-treated for 40 min at 37 °C with the indicated effectors. Then, the cells were allowed to migrate for 3 h or to invade for 5 h at 37 °C toward 5% FBS in DMEM/0.1% BSA. At the end of both assays, the cells on the lower filter surface were fixed, stained with haematoxylin, and counted under an optical microscope (Zeiss Axiophot, Carl Zeiss, Milan, Italy) at 20× magnification. The migration and invasion experiments were conducted in triplicate for U87-MG and in duplicate for U251-MG and U138-MG. The migrated or invaded cells were reported as percentage of basal migration or invasion in the presence of DMEM/0.1% BSA, taken as 100%, and analyzed as reported in Section 2.11.
Figure 4 Effect of uPAcyclin on matrix invasion of U87-MG, U251-MG, and U138-MG GBM cells. Quantitative analysis of U87-MG (A), U251-MG (B), and U138-MG (C) invasion. A total of 11 × 10^4 U87-MG or […] U251-MG or U138-MG/sample were pre-treated for 40 min at 37 °C with uPAcyclin (100 nM, 1 µM), anti-αV polyclonal (anti-αV-Pclonal) or monoclonal (anti-αV MoAb) antibody, or anti-actin polyclonal antibody (anti-actin), and then assayed in Boyden chambers at 37 °C, either for basal (BSA) or FBS-dependent invasion (5% FBS) for 5 h at 37 °C. Data are expressed as in the legend to Figure 3. Results are expressed as percentages with respect to the basal invasion, considered as 100% (* p-value < 0.05; ** p-value < 0.005; *** p-value < 0.001).

U87-MG cells = test: Wound healing assay, U87-MG; assay type: cell-based, human; conditions: for residual space, % of the initial wound: 24 h (untreated 15%)
Protocol: The wound healing assay or scratch test was performed as previously reported. Briefly, 6 × 10^3 U87-MG cells were seeded in multiwell-12 plates containing culture inserts for live cell analysis (Ibidi, Gmbh, Martinsried, Germany) and grown to confluence in DMEM/10% FBS for 24 h. After removing the inserts, the cells were pre-treated for 40 min at 37 °C with uPAcyclin or diluents at the indicated concentrations, and then incubated in DMEM/3% FBS for 24 h. The images were taken using the Inverted Microscope Leica DMI6000 DFC 402 (Leica Microsystems, Milan, Italy). A total of 10 × 10^4 C6 cells were grown to confluence in 12-well plates, in the presence of DMEM/10% FBS. Then, the cell monolayers were wounded with a yellow tip, pre-incubated with uPAcyclin (10 pM and 100 nM) or diluents, and incubated in DMEM/2.5% FBS for 16 h. The images were obtained using the Inverted Axiovert 25 Microscope, equipped with the Zen 3.3 Software. To quantitate cell migration, a rectangle covering the wound edges is drawn on the T0 image and is further applied to the single photograms of each sample. The average margin distance is measured at three points and the results are expressed as percentage wound width of the T0 distance, taken as 100%.
Figure 5 Wound healing assay of U87-MG and C6 cells, in the presence of uPAcyclin. (A) U87-MG cells were grown to confluence in multiwell-12 plates with inserts, pre-incubated with uPAcyclin (10 pM or 100 nM) or diluents for 40 min at 37 °C, and then exposed to 3% FBS, in the presence of uPAcyclin or diluents, as reported. Images were taken at time 0 (T0) and 24 h (T24) and representative images are shown (50× total magnification, scale bar: 250 µm). […] (C) For both U87-MG and C6, the wound width at time 0 is taken as 100% and the wound width at T24 or T16 is calculated as relative to that (* p-value < 0.05; ** p-value < 0.005; *** p-value < 0.001).

[1] = 100 nM, 5% FBS, 5 h, expt 1, duplicates
[2] = 100 nM, 5% FBS, 5 h, expt 2, duplicates
[3] = 1 µM, 5% FBS, 5 h, expt 1, duplicates
[4] = 1 µM, 5% FBS, 5 h, expt 2, duplicates

Ac-K^1P[ESPPEELK^10]-NH2 (sidechain bridge or staple) [uPAcyclin]
reduction in invasion (U138-MG cells; 100 nM, U138-MG, 5% FBS, 5 h): 50–60%
invaded cell number/field (U138-MG cells; [1]): 10 cell number/field and 8 cell number/field
invasion, % of basal (U138-MG cells; [1]): 143% and 114%
invaded cell number/field (U138-MG cells; [2]): 9 cell number/field and 8 cell number/field
invasion, % of basal (U138-MG cells; [2]): 150% and 133%
invasion, % of basal, average 2 expts (U138-MG cells; 100 nM, 5% FBS, 5 h): 135%
invasion, % of basal, average expt 1 (U138-MG cells; 100 nM, 5% FBS, 5 h): 129%
invasion, % of basal, average expt 2 (U138-MG cells; 100 nM, 5% FBS, 5 h): 142%
invasion, % of basal, T-test list (U138-MG cells; 100 nM): 143 and 114 and 150 and 133
invasion, in words (U138-MG cells; 1 µM, U138-MG, 5% FBS, 5 h): reduced invasion to basal levels
invaded cell number/field (U138-MG cells; [3]): 7 cell number/field and 6 cell number/field
invasion, % of basal (U138-MG cells; [3]): 100% and 86%
invaded cell number/field (U138-MG cells; [4]): 6 cell number/field and 5 cell number/field
invasion, % of basal (U138-MG cells; [4]): 100% and 83%
invasion, % of basal, average 2 expts (U138-MG cells; 1 µM, 5% FBS, 5 h): 92%
invasion, % of basal, average expt 1 (U138-MG cells; 1 µM, 5% FBS, 5 h): 93%
invasion, % of basal, average expt 2 (U138-MG cells; 1 µM, 5% FBS, 5 h): 92%
invasion, % of basal, T-test list (U138-MG cells; 1 µM): 100 and 86 and 83
residual space, % of the initial wound (U87-MG cells; 10 pM): 30%
residual space, % of the initial wound (U87-MG cells; 100 nM): 60%
reduction of wound healing rate closure (U87-MG cells; abstract): 50%
